Laboratory results from US10183927B2, “Crystalline forms of C21H22Cl2N4O2” (BIOMED VALLEY DISCOVERIES, INC., priority 2015, dated 2019).
Counter-ions that a name gives are not always drawn.

Experiment: Interconversion of solid forms as a function of relative humidity
Format: physicochemical
Method: A vessel containing 4-(5-Chloro-2-isopropylaminopyridin-4-yl)-1H-pyrrole-2-carboxylic acid [1-(3-chlorophenyl)-2-hydroxyethyl]amide Form A was purged with dry nitrogen and relative humidity was monitored. After about 73 minutes the relative humidity had decreased from 36.9% to 1.0%.

SMILES | solid form after purging with dry nitrogen (relative humidity decreased from 36.9% to 1.0% after about 73 minutes) | solid form upon sorption of water (sorption of water)
CC(C)Nc1cc(-c2c[nH]c(C(=O)N[C@H](CO)c3cccc(Cl)c3)c2)c(Cl)cn1 [Form A, 4-(5-Chloro-2-isopropylaminopyridin-4-yl)-1H-pyrrole-2-carboxylic acid [1-(3-chlorophenyl)-2-hydroxyethyl]amide HCl hydrate] | determined to be a new form, designated Form D | 
CC(C)Nc1cc(-c2c[nH]c(C(=O)N[C@H](CO)c3cccc(Cl)c3)c2)c(Cl)cn1 [Form D, 4-(5-Chloro-2-isopropylaminopyridin-4-yl)-1H-pyrrole-2-carboxylic acid [1-(3-chlorophenyl)-2-hydroxyethyl]amide HCl] |  | observed to be Form A
